The target of assay [1] is T1, Angiotensin Converting Enzyme (from rabbit lung) (Oryctolagus cuniculus, UniProt P12822).
T1 construct: Angiotensin Converting Enzyme (from rabbit lung); purchased Sigma Chemical Co. (St. Louis, USA); host or cells: rabbit lung tissue
T1 sequence (P12822 34-1310): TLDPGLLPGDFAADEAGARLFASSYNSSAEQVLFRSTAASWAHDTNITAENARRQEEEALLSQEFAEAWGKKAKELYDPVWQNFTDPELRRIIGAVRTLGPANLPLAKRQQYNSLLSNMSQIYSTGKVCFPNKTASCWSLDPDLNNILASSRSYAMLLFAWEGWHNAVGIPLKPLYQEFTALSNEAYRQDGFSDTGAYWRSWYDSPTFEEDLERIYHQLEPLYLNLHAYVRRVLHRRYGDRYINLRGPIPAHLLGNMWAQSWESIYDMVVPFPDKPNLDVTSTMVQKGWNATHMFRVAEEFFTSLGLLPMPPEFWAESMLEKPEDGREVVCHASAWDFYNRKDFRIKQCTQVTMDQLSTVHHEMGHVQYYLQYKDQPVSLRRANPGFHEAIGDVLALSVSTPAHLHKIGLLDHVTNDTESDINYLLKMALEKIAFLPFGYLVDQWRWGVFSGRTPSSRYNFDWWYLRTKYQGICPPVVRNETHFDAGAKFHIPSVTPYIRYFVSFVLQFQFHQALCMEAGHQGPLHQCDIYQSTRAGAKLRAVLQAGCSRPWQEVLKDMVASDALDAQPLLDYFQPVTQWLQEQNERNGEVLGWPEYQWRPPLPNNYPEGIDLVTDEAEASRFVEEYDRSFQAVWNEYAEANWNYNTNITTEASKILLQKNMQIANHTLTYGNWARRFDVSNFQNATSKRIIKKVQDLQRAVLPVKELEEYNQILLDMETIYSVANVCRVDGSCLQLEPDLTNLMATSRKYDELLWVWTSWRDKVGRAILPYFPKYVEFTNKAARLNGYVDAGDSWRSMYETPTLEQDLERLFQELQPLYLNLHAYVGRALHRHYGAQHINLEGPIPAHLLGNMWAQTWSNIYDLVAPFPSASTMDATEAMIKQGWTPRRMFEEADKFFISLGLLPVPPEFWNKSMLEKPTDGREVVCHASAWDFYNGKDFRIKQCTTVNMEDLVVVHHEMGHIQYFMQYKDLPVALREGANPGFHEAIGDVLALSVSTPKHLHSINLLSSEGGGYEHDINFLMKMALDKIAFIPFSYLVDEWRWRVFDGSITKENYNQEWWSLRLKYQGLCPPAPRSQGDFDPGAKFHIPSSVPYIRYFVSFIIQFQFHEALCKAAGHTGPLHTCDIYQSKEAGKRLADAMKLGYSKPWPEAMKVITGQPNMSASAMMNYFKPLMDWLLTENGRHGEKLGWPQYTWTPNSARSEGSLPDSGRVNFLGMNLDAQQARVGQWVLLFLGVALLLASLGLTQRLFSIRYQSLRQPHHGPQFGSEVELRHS
The assay can be described thus: ACE-inhibitory activity, in vitro spectrophotometric assay (Cushman and Cheung, HHL substrate). The class given is biochemical. The text has this:
Whey protein hydrolysate WPH 917 (84.5% protein w/w) was obtained from New Zealand Milk Product Inc. (Santa Rosa, USA). Whey protein hydrolysate LE80GF (80.0% w/w) was obtained from DMV International (New-York, USA). Whey protein isolate (BiPRO™) and β-lactoglobulin-rich product were obtained from Davisco Foods International (Le Sueur, Minn., USA). Purified peptidic sequence Ala-Leu-Pro-Met-His-Ile-Arg modelling the peptide f-142–148 from β-1g was chemically-synthetized by the Service de séquence de peptides de l'Est du Québec (Ste-Foy, Qc, Canada). HEPES Sodium salt, Hippuryl-L-Histidyl-L-Leucine, and Angiotensin Converting Enzyme (from rabbit lung) were purchased from Sigma Chemical Co. (St. Louis, USA). All other products used were analytical grade.
The ACE-inhibitory activity was measured in vitro by a spectrophotometric assay according to the method of Cushman and Cheung. (Cushman, D. N., Cheung, H. S. 1971 Spectrophotometric assay and properties of the angiotensin converting enzyme of rabbit lung. Biochemical Pharmacology, 20: 1637–1648.) According to this method, hippuric acid is liberated from hippuryl-L-histidyl-L-leucine (HHL) by the enzymatic reaction of ACE. After extraction by ethyl acetate and removal of ethyl acetate by heat evaporation, hippuric acid is dissolved in deionized water.
Inhibitory activity was calculated according to the following equation: Inhibitory activity (%)=[(Acontrol−Asample)/(Acontrol−Ablank)]×[…] 1 where A represents absorbance. A plot of the inhibitory activity (%) versus log10 of sample concentration (mg powder ml^−1) was generated using 6 different concentrations of samples for BIPRO™, AS-601 (BiPRO™β-1g), commercial hydrolysates (WPH 917, LE80GF) and of synthetic peptide (f142–148) from β-1g. Each concentration was tested in triplicate and the mean value was plotted in the curves. The IC50 value (expressed in terms of mg powder ml^−1, defined as the concentration of inhibitor which gives 50% inhibition of ACE activity, was calculated using the linear regression equations of the curves.

In the next assay the target is ACE (Homo sapiens, UniProt P12821). To be noted: cited from earlier work.
Chain of ACE (P12821 30-1306, species assumed): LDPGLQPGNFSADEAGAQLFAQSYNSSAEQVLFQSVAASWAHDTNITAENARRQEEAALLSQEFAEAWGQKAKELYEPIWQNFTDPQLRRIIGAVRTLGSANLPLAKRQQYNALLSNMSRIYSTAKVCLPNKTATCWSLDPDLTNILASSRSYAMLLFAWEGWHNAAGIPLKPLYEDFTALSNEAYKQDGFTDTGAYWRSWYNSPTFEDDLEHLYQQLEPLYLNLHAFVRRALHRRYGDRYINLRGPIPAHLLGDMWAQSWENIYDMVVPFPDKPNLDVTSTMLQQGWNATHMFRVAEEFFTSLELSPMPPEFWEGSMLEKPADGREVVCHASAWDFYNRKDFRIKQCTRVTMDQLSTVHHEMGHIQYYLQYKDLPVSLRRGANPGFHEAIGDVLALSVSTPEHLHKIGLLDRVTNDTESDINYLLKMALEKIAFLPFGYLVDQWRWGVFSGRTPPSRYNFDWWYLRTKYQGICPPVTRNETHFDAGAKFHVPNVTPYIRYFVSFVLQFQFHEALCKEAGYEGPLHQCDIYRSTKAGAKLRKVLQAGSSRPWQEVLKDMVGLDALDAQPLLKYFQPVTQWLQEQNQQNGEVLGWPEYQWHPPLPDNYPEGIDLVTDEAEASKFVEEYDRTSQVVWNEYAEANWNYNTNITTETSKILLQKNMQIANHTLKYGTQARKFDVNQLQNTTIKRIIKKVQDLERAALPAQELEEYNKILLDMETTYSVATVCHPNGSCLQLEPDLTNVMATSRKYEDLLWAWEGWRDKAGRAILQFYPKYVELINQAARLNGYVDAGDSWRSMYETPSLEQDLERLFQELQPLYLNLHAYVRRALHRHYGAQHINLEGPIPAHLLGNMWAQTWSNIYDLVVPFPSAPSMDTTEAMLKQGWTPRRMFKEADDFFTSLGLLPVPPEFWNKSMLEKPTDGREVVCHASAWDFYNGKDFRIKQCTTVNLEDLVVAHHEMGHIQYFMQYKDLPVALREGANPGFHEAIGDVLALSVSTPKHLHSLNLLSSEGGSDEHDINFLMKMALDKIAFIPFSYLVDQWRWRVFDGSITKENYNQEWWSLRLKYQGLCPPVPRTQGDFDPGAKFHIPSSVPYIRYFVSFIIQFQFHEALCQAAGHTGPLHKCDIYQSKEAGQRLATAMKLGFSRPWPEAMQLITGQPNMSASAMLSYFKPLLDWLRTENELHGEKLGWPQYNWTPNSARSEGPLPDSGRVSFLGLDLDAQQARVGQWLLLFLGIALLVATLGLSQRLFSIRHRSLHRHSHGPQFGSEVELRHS
The test system of assay [2] is spontaneously hypertensive rats. To be noted: among nine identified peptide sequences; cited from earlier work.
Where [3] appears, read: inhibitory activity (%) versus sample concentration (mg powder ml^−1).

Where two headings read alike, the source gives them in different places. No end group written: not given here.

On to “ALPMHIR [β-1 g f142–148, Ala-Leu-Pro-Met-His-Ile-Arg]”, for which the “Slope m of linear regression (y=m lnX+b) of the ACE-inhibitory activity curve” value in assay [1] (setting [3]) stood at 10.35. Also, the “Y-intercept b of linear regression (y=m lnX+b) of the ACE-inhibitory activity curve” value in assay [1] (setting [3]) turned out to be 84.4. For the same substance, the IC50 was 47.8 µM in assay [1] (rabbit lung ACE, HHL substrate, 37° C. for 20 min, 6 concentrations in triplicate, calculated from linear regression, read-out: IC50 (concentration of inhibitor which gives 50% inhibition of ACE activity) (converted)) and 42.6 µM at ACE (Mullally et al. 1997, read-out: IC50 (ACE inhibition)).
Turning to “peptide f23–34 from xsl casein: peptide f23–34 from casein (bovine, variant B), from tryptic casein hydrolysate (FFVAPFPEVFGK; Alpha-S1-casein; UniProt P02662 38-49, looked up, fragment)”, the IC50 with ACE (Maruyama and Suzuki, tryptic casein hydrolysate peptide, read-out: IC50 (concentration needed to inhibit 50% ACE activity)) was 77 µM.
Regarding “β-lactoglobulin (f78–80): peptide fragment 78–80 of β-lactoglobulin from proteinase K digestion of cheese whey protein (Abubakar et al.) (IPA; UniProt P02754 94-96, looked up, fragment)”, the antihypertensive activity entry in assay [2] is “strongest antihypertensive activity”.

The values above are taken from US6998259B1, “Enzymatic treatment of whey proteins for the production of antihypertensive peptides and the resulting products” (Davisco Foods International, priority 1999, dated 2006).
